Measured values published in patent US11813285B2, “Stable pharmaceutical composition comprising esomeprazole and sodium bicarbonate” (CHONG KUN DANG PHARMACEUTICAL CORP., priority 2018, dated 2023).
Where two headings read alike, the source gives them in different places.

What was measured:
[1] = Stability test of esomeprazole and omeprazole according to pH; type: physicochemical; settings: in % (unit assumed)
Protocol: <Analysis method> A) Detector: UV-Visible spectrophotometer (measurement wavelength:280 nm) B) Column: Inertsil C8-3 (4.6×150 mm, 5 μm) or equivalent column C) Injection amount: 20 μl D) Flow rate: 1.5 mL/min E) Column temperature: Constant temperature near 40° C. F) Sample temperature: Constant temperature near 10° C. […] H) Mobile phase: […] The buffer solution at pH 7.6 was prepared as follows: 0.725 g of sodium dihydrogen phosphate monohydrate (NaH2PO4.H2O) and 4.472 g of anhydrous disodium hydrogen phosphate (Na2HPO4) were weighed to be put in an 1 L volumetric flask and dissolved in purified water, followed by filling the flask with purified water up to the calibration mark. 250 mL of the liquid was taken to be put in an 1 L volumetric flask, followed by filling the flask with purified water up to the calibration mark and adjusting the pH to 7.6 with phosphoric acid.

[2] = for pH of simulated gastric juice: 200 mL simulated gastric juice + 200 mL purified water, 37° C.
Protocol: A pH was measured according to the change of the dose of sodium bicarbonate in a solution (37° C.) where 200 mL of purified water was put in 200 mL of simulated gastric juice.

COc1ccc2[nH]c([S+]([O-])Cc3ncc(C)c(OC)c3C)nc2c1 (centres unmarked) [Omeprazole, 5-methoxy-2-[(4-methoxy-3,5-dimethyl-2-pyridinyl)methyl]sulfinyl-1H-benzimidazol]
assay of esomeprazole and omeprazole according to pH ([1]; buffer pH 4.0, 5 min): 57.2 | assay of esomeprazole and omeprazole according to pH ([1]; buffer pH 4.0, 10 min): 29.4 | assay of esomeprazole and omeprazole according to pH ([1]; buffer pH 4.0, 15 min): 15.3 | assay of esomeprazole and omeprazole according to pH ([1]; buffer pH 4.0, 30 min): 6.7 | assay of esomeprazole and omeprazole according to pH ([1]; buffer pH 4.0, 45 min): 1.6 | assay of esomeprazole and omeprazole according to pH ([1]; buffer pH 4.0, 60 min): 0.8 | assay of esomeprazole and omeprazole according to pH ([1]; buffer pH 4.0, 120 min): 0.1 | assay of esomeprazole and omeprazole according to pH ([1]; buffer pH 6.0, 5 min): 74.9 | assay of esomeprazole and omeprazole according to pH ([1]; buffer pH 6.0, 10 min): 74.2 | assay of esomeprazole and omeprazole according to pH ([1]; buffer pH 6.0, 15 min): 71.7 | assay of esomeprazole and omeprazole according to pH ([1]; buffer pH 6.0, 30 min): 69.6 | assay of esomeprazole and omeprazole according to pH ([1]; buffer pH 6.0, 45 min): 65.4 | assay of esomeprazole and omeprazole according to pH ([1]; buffer pH 6.0, 60 min): 64.1 | assay of esomeprazole and omeprazole according to pH ([1]; buffer pH 6.0, 120 min): 55.1 | assay of esomeprazole and omeprazole according to pH ([1]; buffer pH 6.8, 5 min): 91.5 | assay of esomeprazole and omeprazole according to pH ([1]; buffer pH 6.8, 10 min): 90.5 | assay of esomeprazole and omeprazole according to pH ([1]; buffer pH 6.8, 15 min): 89.9 | assay of esomeprazole and omeprazole according to pH ([1]; buffer pH 6.8, 30 min): 89.8 | assay of esomeprazole and omeprazole according to pH ([1]; buffer pH 6.8, 45 min): 88.8 | assay of esomeprazole and omeprazole according to pH ([1]; buffer pH 6.8, 60 min): 88.3 | assay of esomeprazole and omeprazole according to pH ([1]; buffer pH 6.8, 120 min): 85.5 | assay of esomeprazole and omeprazole according to pH ([1]; buffer pH 7.0, 5 min): 100.5 | assay of esomeprazole and omeprazole according to pH ([1]; buffer pH 7.0, 10 min): 99.0 | assay of esomeprazole and omeprazole according to pH ([1]; buffer pH 7.0, 15 min): 98.9 | assay of esomeprazole and omeprazole according to pH ([1]; buffer pH 7.0, 30 min): 98.2 | assay of esomeprazole and omeprazole according to pH ([1]; buffer pH 7.0, 45 min): 97.9 | assay of esomeprazole and omeprazole according to pH ([1]; buffer pH 7.0, 60 min): 97.5 | assay of esomeprazole and omeprazole according to pH ([1]; buffer pH 7.0, 120 min): 95.8 | assay of esomeprazole and omeprazole according to pH ([1]; buffer pH 7.3, 5 min): 99.8 | assay of esomeprazole and omeprazole according to pH ([1]; buffer pH 7.3, 10 min): 100.0 | assay of esomeprazole and omeprazole according to pH ([1]; buffer pH 7.3, 15 min): 99.9 | assay of esomeprazole and omeprazole according to pH ([1]; buffer pH 7.3, 30 min): 99.8 | assay of esomeprazole and omeprazole according to pH ([1]; buffer pH 7.3, 45 min): 99.8 | assay of esomeprazole and omeprazole according to pH ([1]; buffer pH 7.3, 60 min): 99.8 | assay of esomeprazole and omeprazole according to pH ([1]; buffer pH 7.3, 120 min): 99.86 | assay of esomeprazole and omeprazole according to pH ([1]; buffer pH 7.5, 5 min): 100.5 | assay of esomeprazole and omeprazole according to pH ([1]; buffer pH 7.5, 10 min): 99.7 | assay of esomeprazole and omeprazole according to pH ([1]; buffer pH 7.5, 15 min): 99.7 | assay of esomeprazole and omeprazole according to pH ([1]; buffer pH 7.5, 30 min): 99.4 | assay of esomeprazole and omeprazole according to pH ([1]; buffer pH 7.5, 45 min): 99.2 | assay of esomeprazole and omeprazole according to pH ([1]; buffer pH 7.5, 60 min): 98.9 | assay of esomeprazole and omeprazole according to pH ([1]; buffer pH 7.5, 120 min): 98.2 | assay of esomeprazole and omeprazole according to pH ([1]; buffer pH 8.0, 15 min): 99.7 | assay of esomeprazole and omeprazole according to pH ([1]; buffer pH 8.0, 30 min): 99.6 | assay of esomeprazole and omeprazole according to pH ([1]; buffer pH 8.0, 45 min): 99.5 | assay of esomeprazole and omeprazole according to pH ([1]; buffer pH 8.0, 60 min): 99.5 | assay of esomeprazole and omeprazole according to pH ([1]; buffer pH 8.0, 120 min): 98.6

COc1ccc2[nH]c([S@@+]([O-])Cc3ncc(C)c(OC)c3C)nc2c1 [S-omeprazole, (S)-5-methoxy-2-[(4-methoxy-3,5-dimethyl-2-pyridinyl)-methyl]sulfinyl-1H-benzimidazol]
assay of esomeprazole and omeprazole according to pH ([1]; buffer pH 4.0, 5 min): 64.1 | assay of esomeprazole and omeprazole according to pH ([1]; buffer pH 4.0, 10 min): 31.0 | assay of esomeprazole and omeprazole according to pH ([1]; buffer pH 4.0, 15 min): 15.9 | assay of esomeprazole and omeprazole according to pH ([1]; buffer pH 4.0, 30 min): 6.9 | assay of esomeprazole and omeprazole according to pH ([1]; buffer pH 4.0, 45 min): 1.7 | assay of esomeprazole and omeprazole according to pH ([1]; buffer pH 4.0, 60 min): 0.9 | assay of esomeprazole and omeprazole according to pH ([1]; buffer pH 4.0, 120 min): 0.1 | assay of esomeprazole and omeprazole according to pH ([1]; buffer pH 6.0, 5 min): 74.4 | assay of esomeprazole and omeprazole according to pH ([1]; buffer pH 6.0, 10 min): 72.8 | assay of esomeprazole and omeprazole according to pH ([1]; buffer pH 6.0, 15 min): 71.0 | assay of esomeprazole and omeprazole according to pH ([1]; buffer pH 6.0, 30 min): 68.9 | assay of esomeprazole and omeprazole according to pH ([1]; buffer pH 6.0, 45 min): 66.3 | assay of esomeprazole and omeprazole according to pH ([1]; buffer pH 6.0, 60 min): 63.6 | assay of esomeprazole and omeprazole according to pH ([1]; buffer pH 6.0, 120 min): 54.9 | assay of esomeprazole and omeprazole according to pH ([1]; buffer pH 6.8, 5 min): 95.6 | assay of esomeprazole and omeprazole according to pH ([1]; buffer pH 6.8, 10 min): 90.8 | assay of esomeprazole and omeprazole according to pH ([1]; buffer pH 6.8, 15 min): 90.5 | assay of esomeprazole and omeprazole according to pH ([1]; buffer pH 6.8, 30 min): 89.7 | assay of esomeprazole and omeprazole according to pH ([1]; buffer pH 6.8, 45 min): 88.9 | assay of esomeprazole and omeprazole according to pH ([1]; buffer pH 6.8, 60 min): 88.3 | assay of esomeprazole and omeprazole according to pH ([1]; buffer pH 6.8, 120 min): 86.2 | assay of esomeprazole and omeprazole according to pH ([1]; buffer pH 7.0, 5 min): 99.6 | assay of esomeprazole and omeprazole according to pH ([1]; buffer pH 7.0, 10 min): 99.0 | assay of esomeprazole and omeprazole according to pH ([1]; buffer pH 7.0, 15 min): 99.3 | assay of esomeprazole and omeprazole according to pH ([1]; buffer pH 7.0, 30 min): 98.9 | assay of esomeprazole and omeprazole according to pH ([1]; buffer pH 7.0, 45 min): 98.7 | assay of esomeprazole and omeprazole according to pH ([1]; buffer pH 7.0, 60 min): 98.1 | assay of esomeprazole and omeprazole according to pH ([1]; buffer pH 7.0, 120 min): 96.8 | assay of esomeprazole and omeprazole according to pH ([1]; buffer pH 7.3, 5 min): 100.1 | assay of esomeprazole and omeprazole according to pH ([1]; buffer pH 7.3, 10 min): 100.1 | assay of esomeprazole and omeprazole according to pH ([1]; buffer pH 7.3, 15 min): 100.0 | assay of esomeprazole and omeprazole according to pH ([1]; buffer pH 7.3, 30 min): 100.0 | assay of esomeprazole and omeprazole according to pH ([1]; buffer pH 7.3, 45 min): 100.0 | assay of esomeprazole and omeprazole according to pH ([1]; buffer pH 7.3, 60 min): 100.0 | assay of esomeprazole and omeprazole according to pH ([1]; buffer pH 7.3, 120 min): 99.90 | assay of esomeprazole and omeprazole according to pH ([1]; buffer pH 7.5, 5 min): 99.4 | assay of esomeprazole and omeprazole according to pH ([1]; buffer pH 7.5, 10 min): 99.3 | assay of esomeprazole and omeprazole according to pH ([1]; buffer pH 7.5, 15 min): 99.2 | assay of esomeprazole and omeprazole according to pH ([1]; buffer pH 7.5, 30 min): 99.1 | assay of esomeprazole and omeprazole according to pH ([1]; buffer pH 7.5, 45 min): 99.3 | assay of esomeprazole and omeprazole according to pH ([1]; buffer pH 7.5, 60 min): 99.1 | assay of esomeprazole and omeprazole according to pH ([1]; buffer pH 7.5, 120 min): 98.2 | assay of esomeprazole and omeprazole according to pH ([1]; buffer pH 8.0, 15 min): 101.1 | assay of esomeprazole and omeprazole according to pH ([1]; buffer pH 8.0, 30 min): 100.9 | assay of esomeprazole and omeprazole according to pH ([1]; buffer pH 8.0, 45 min): 100.7 | assay of esomeprazole and omeprazole according to pH ([1]; buffer pH 8.0, 60 min): 100.7 | assay of esomeprazole and omeprazole according to pH ([1]; buffer pH 8.0, 120 min): 100.0

O=C([O-])O.[Na+] [sodium bi-carbonate, sodium bicarbonate]
dose of sodium bicarbonate that can neutralize 200 mL of simulated gastric juice to show neutral pH ([2]; 200 mL simulated gastric juice): at least 600 mg | pH of simulated gastric juice ([2]; sodium bicarbonate 500 mg): 5.77 | pH of simulated gastric juice ([2]; sodium bicarbonate 600 mg): 6.51 | pH of simulated gastric juice ([2]; sodium bicarbonate 700 mg): 7.30 | pH of simulated gastric juice ([2]; sodium bicarbonate 800 mg): 7.30 | pH of simulated gastric juice ([2]; sodium bicarbonate 900 mg): 7.31 | pH of simulated gastric juice ([2]; sodium bicarbonate 1,000 mg): 7.37 | pH of simulated gastric juice ([2]; sodium bicarbonate 1,100 mg): 7.38 | pH of simulated gastric juice ([2]; sodium bicarbonate 1,200 mg): 7.38 | pH of simulated gastric juice ([2]; sodium bicarbonate 1,300 mg): 7.40
